For experiment [1], the target named is T1, ACD2 (ACCELERATED CELL DEATH 2; ACD2^40-320; Red Chlorophyll Catabolite Reductase) (Arabidopsis thaliana, UniProt Q8LDU4, E154A/D291H).
T1 sequence (Q8LDU4 40-319 E154A/D291H): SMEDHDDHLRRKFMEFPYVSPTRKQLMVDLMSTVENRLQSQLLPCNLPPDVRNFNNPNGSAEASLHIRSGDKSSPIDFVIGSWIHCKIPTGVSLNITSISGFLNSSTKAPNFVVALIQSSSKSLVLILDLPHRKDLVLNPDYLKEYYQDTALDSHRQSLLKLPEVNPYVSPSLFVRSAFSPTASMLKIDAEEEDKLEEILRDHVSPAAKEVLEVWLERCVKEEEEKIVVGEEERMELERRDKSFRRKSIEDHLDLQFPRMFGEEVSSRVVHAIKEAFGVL
As to the kind of experiment: intrinsic tryptophan fluorescence quenching. Type of experiment: binding. The settings on record: 0.1 μM protein, 50 mM Na2HPO4 pH 8.0, 25 mM NaCl, 22°C, excitation 296 nm.

For experiment [2], the target named is T2, ACD2 (ACCELERATED CELL DEATH 2; ACD2^40-320; Red Chlorophyll Catabolite Reductase) (Arabidopsis thaliana, UniProt Q8LDU4).
T2 sequence (Q8LDU4 40-319): T1 sequence (Q8LDU4 40-319 E154A/D291H) with A115E, H252D
The experiment can be described thus: intrinsic tryptophan fluorescence quenching. The experiment is classed as binding.

Molecules are shown by their SMILES. Numbering of substitutions follows the chain as printed. Read-outs that look alike come from different tables or passages of the source.

For the molecule `C=CC1=C(C)/C(=C/C2=NC(=C3\c4[nH]c(Cc5[nH]c(C=O)c(C)c5CC)c(C)c4C(=O)[C@@H]3C(=O)OC)/[C@@H](CCC(=O)O)[C@@H]2C)NC1=O` [RCC], the dissociation constant (Kd) was found to be 340 ± 30 nM in experiment [1] and 360 ± 30 nM in experiment [2] (0.1 μM protein, 50 mM Na2HPO4 pH 8.0, 25 mM NaCl, 22°C, excitation 296 nm). In turn, `C=CC1=C(C)c2cc3[nH]c(cc4nc(cc5[nH]c(cc1n2)c(C)c5CCC(=O)O)C(CCC(=O)O)=C4C)c(C)c3C=C` [PPIX] had a dissociation constant (Kd) in experiment [2] of 310 ± 20 nM.

In general, Kd refers to the free concentration of one partner at which half of the binding sites on the other are occupied at equilibrium, for simple one-to-one binding. Low readings indicate a tighter complex, high ones a looser complex.

The record behind these values is PMC3274588 (The Plant Journal, 2011).
